Assay results reported in patent US20090118350A1, “Biomarkers for Identifying Efficacy of Tegaserod in Patients with Chronic Constipation” (priority 2005, published 2009).
Where two headings read alike, the source gives them in different places.

Experiments:
[1] = system: chronic constipation patients; conditions: chronic constipation patients across North and South America; Johanson et al. 2004; cited from earlier work
[2] = system: patients with chronic constipation; experiment: Weekly diary assessments (satisfaction with bowel habits, bothersome constipation, abdominal bloating, abdominal pain, global constipation relief) after 12 weeks, ANCOVA; format: in vivo, human; conditions: for weekly diary assessments, outcome: 6-mg bid vs placebo, 12 weeks; for Bothersome abdominal bloating, LS Mean Value / Bothersome abdominal pain, LS Mean Value / Bothersome constipation, LS Mean Value / Global constipation relief, LS Mean Value / Satisfaction with bowel habit, LS Mean Value: 12-wk, tegaserod 6-mg bid, lower value = better response
Method: Clinical assessments. […] The primary efficacy endpoint evaluated was the increase of 1 or more CSBM/week over baseline after 4 weeks of treatment. A secondary endpoint evaluated in this genotyping study was RESP12, the increase of 1 of more CSBM/week over baseline after 12 weeks of treatment. Patients were classified as responders if they met these criteria and had completed at least 7 days of treatment. Additional secondary efficacy assessments were evaluated based on the weekly diary assessments, such as bothersome constipation, bothersome abdominal pain, and satisfaction with bowel habits at the end of the 12-week treatment period (using the baseline value as a co-variant for analysis). Additional secondary endpoints. In addition to the above assessments, 5 additional secondary efficacy endpoints were evaluated from the weekly diary assessments. These included the weekly changes in satisfaction with bowel habits, bothersome constipation, bothersome abdominal bloating, bothersome abdominal pain, and global constipation relief. TABLE 13 presents the results of analysis comparing the overall change in these parameters at the end of 12 weeks of treatment by treatment (tegaserod 6-mg bid vs. placebo) and whether they had 1 or more of the 12 “high responder” SNPs. An ANCOVA model was applied using the baseline value of these assessments as a quantitative co-variant.

[3] = system: healthy volunteers, patients with IBS-C, patients with chronic constipation; conditions: cited from earlier work
[4] = system: patients with chronic constipation; experiment: Response by serotonin transporter (SLC6A4) promoter insertion/deletion genotype; format: in vivo, human; conditions: for OR: tegaserod vs placebo
Excerpt: Two major classes of insertion/deletion polymorphisms have been characterized for the SLC6A4 gene, one in intron 2 and another in the promoter region. SLC6A4 is the serotonin transporter gene, also know as SERT or HTT. Camilleri and colleagues reported that SLC6A4 promoter insertion/deletion polymorphism was associated with colonic transit response following treatment with the serotonin 5-HT3 receptor antagonist alosetron. Camilleri M et al., Gastroenterology; 123 (2):425-32 (2002). […] The overall response rates for C16-C16 were 48% for tegaserod and 21% for placebo (OR=3.51, 95% CI: 1.67-7.41) compared to the C14-C14 homozygotes at 45% for tegaserod and 27% for placebo (OR=2.3, 95% CI: 0.93-5.69) and C14-C16 heterozygotes at 43% for tegaserod and 28% for placebo (OR=1.95; 95% CI: 1.12-3.41). Within a given treatment group, there was no statistically significant difference between response rates between the different genotypes.

SMILES: [H]/N=C(/NCCCCC)N/N=C/c1c[nH]c2ccc(OC)cc12 [tegaserod, Tegaserod]
- response rate [1]: 43%
- weekly diary assessments, outcome ([2]; all patients combined): better outcome compared to placebo
- weekly diary assessments, outcome ([2]; individuals with 1 or more of the 12 SNPs, all 5 assessments): significantly greater responses to tegaserod than placebo
- weekly diary assessments, outcome ([2]; individuals with none of the 12 SNPs): no treatment difference
- Bothersome abdominal bloating, LS Mean Value ([2]; 0 of 12 SNPs): 2.18
- Bothersome abdominal pain, LS Mean Value ([2]; 0 of 12 SNPs): 1.90
- Bothersome constipation, LS Mean Value ([2]; 0 of 12 SNPs): 2.25
- Global constipation relief, LS Mean Value ([2]; 0 of 12 SNPs): 2.20
- Satisfaction with bowel habit, LS Mean Value ([2]; 0 of 12 SNPs): 2.48
- Bothersome abdominal bloating, LS Mean Value ([2]; >=1 of 12 SNPs): 2.00
- Bothersome abdominal pain, LS Mean Value ([2]; >=1 of 12 SNPs): 1.77
- Bothersome constipation, LS Mean Value ([2]; >=1 of 12 SNPs): 1.87
- Global constipation relief, LS Mean Value ([2]; >=1 of 12 SNPs): 1.95
- Satisfaction with bowel habit, LS Mean Value ([2]; >=1 of 12 SNPs): 2.17
- Bothersome abdominal bloating, LS Mean Value ([2]; All geno): 2.09
- Bothersome abdominal pain, LS Mean Value ([2]; All geno): 1.84
- Bothersome constipation, LS Mean Value ([2]; All geno): 2.07
- Global constipation relief, LS Mean Value ([2]; All geno): 2.08
- Satisfaction with bowel habit, LS Mean Value ([2]; All geno): 2.33
- colonic transit time ([3]; healthy volunteers (Degen et al. 2001)): significantly increase colonic transit time
- colonic transit time ([3]; patients with IBS-C (Prather et al. 2000)): significantly increase colonic transit time
- colonic transit time ([3]; patients with chronic constipation (Johanson et al. 2004)): significantly increase colonic transit time
- overall response rate ([4]; serotonin transporter promoter polymorphism C14-C14 homozygotes): 45%
- overall response rate ([4]; serotonin transporter promoter polymorphism C14-C16 heterozygotes): 43%
- overall response rate ([4]; serotonin transporter promoter polymorphism C16-C16 homozygotes): 48%
- OR ([4]; C14-C14 homozygotes): 2.3
- OR ([4]; C14-C16 heterozygotes): 1.95
- OR ([4]; C16-C16 homozygotes): 3.51
